Test results published in the NIST ThermoML archive (doi:10.1016/j.jct.2006.05.004).

Assays:
[1] = xn = mol fraction of the nth substance listed; settings: 298.15 K, 101 kPa, Liquid
[2] = excess molar enthalpy (molar enthalpy of mixing); xn = mol fraction of the nth substance listed; settings: 298.15 K, 101 kPa, Liquid

BrCCCCCBr [1,5-dibromopentane] + COC=O
Settings	excess molar enthalpy [kcal/mol]	mass density [kg/m3]
[1], x2 = 0.1109	–	1653.22
[1], x2 = 0.2235	–	1607
[1], x2 = 0.3094	–	1567.09
[1], x2 = 0.3956	–	1522.56
[1], x2 = 0.4606	–	1485.39
[1], x2 = 0.5307	–	1441.42
[1], x2 = 0.5985	–	1394.16
[1], x2 = 0.6548	–	1350.94
[1], x2 = 0.7035	–	1310.4
[1], x2 = 0.753	–	1265.54
[1], x2 = 0.7889	–	1230.37
[1], x2 = 0.8347	–	1181.99
[1], x2 = 0.9065	–	1097.57
[1], x2 = 0.9653	–	1017.86
[1], x2 = 0.9733	–	1006.52
[2], x2 = 0.1086	0.101	–
[2], x2 = 0.2259	0.174	–
[2], x2 = 0.336	0.227	–
[2], x2 = 0.4363	0.255	–
[2], x2 = 0.5163	0.265	–
[2], x2 = 0.5848	0.264	–
[2], x2 = 0.64	0.254	–
[2], x2 = 0.6892	0.241	–
[2], x2 = 0.7311	0.225	–
[2], x2 = 0.7667	0.207	–
[2], x2 = 0.8146	0.18	–
[2], x2 = 0.8709	0.14	–
[2], x2 = 0.9225	0.0935	–
[2], x2 = 0.9675	0.046	–

BrCCCCCCBr [1,6-dibromohexane] + COC(C)=O
Settings	excess molar enthalpy [kcal/mol]	mass density [kg/m3]
[1], x2 = 0.2073	–	1527.77
[1], x2 = 0.2887	–	1489.28
[1], x2 = 0.368	–	1448.7
[1], x2 = 0.44	–	1408.44
[1], x2 = 0.5134	–	1363.84
[1], x2 = 0.5691	–	1327.2
[1], x2 = 0.6301	–	1284.18
[1], x2 = 0.7305	–	1205.44
[1], x2 = 0.7765	–	1165.56
[1], x2 = 0.8189	–	1126.42
[1], x2 = 0.8614	–	1084.46
[1], x2 = 0.8974	–	1046.81
[1], x2 = 0.9345	–	1005.74
[1], x2 = 0.9663	–	968.1
[2], x2 = 0.1165	0.063	–
[2], x2 = 0.2329	0.104	–
[2], x2 = 0.317	0.13	–
[2], x2 = 0.4064	0.148	–
[2], x2 = 0.4865	0.156	–
[2], x2 = 0.553	0.156	–
[2], x2 = 0.6074	0.151	–
[2], x2 = 0.6546	0.143	–
[2], x2 = 0.6988	0.135	–
[2], x2 = 0.7443	0.124	–
[2], x2 = 0.7905	0.108	–
[2], x2 = 0.837	0.0889	–
[2], x2 = 0.8808	0.0701	–
[2], x2 = 0.9257	0.0424	–
[2], x2 = 0.9683	0.0205	–

BrCCCCBr [1,4-dibromobutane] + CCCCC(=O)OC
Settings	excess molar enthalpy [kcal/mol]	mass density [kg/m3]
[1], x2 = 0.0627	–	1757.47
[1], x2 = 0.1071	–	1711.91
[1], x2 = 0.1637	–	1654.55
[1], x2 = 0.2171	–	1601.18
[1], x2 = 0.3252	–	1495.18
[1], x2 = 0.4423	–	1383.13
[1], x2 = 0.5031	–	1326.06
[1], x2 = 0.621	–	1217.29
[1], x2 = 0.6839	–	1160.44
[1], x2 = 0.7415	–	1108.9
[1], x2 = 0.8021	–	1055.26
[1], x2 = 0.9296	–	944.62
[2], x2 = 0.0592	0.0081	–
[2], x2 = 0.1366	0.0138	–
[2], x2 = 0.2206	0.0173	–
[2], x2 = 0.3061	0.0161	–
[2], x2 = 0.3802	0.0125	–
[2], x2 = 0.4461	0.00566	–
[2], x2 = 0.4526	0.00449	–
[2], x2 = 0.4992	-0.00124	–
[2], x2 = 0.5566	-0.00686	–
[2], x2 = 0.6213	-0.0107	–
[2], x2 = 0.6979	-0.0116	–
[2], x2 = 0.7947	-0.0115	–
[2], x2 = 0.9001	-0.0075	–

BrCCCCCCBr [1,6-dibromohexane] + COC=O
Settings	excess molar enthalpy [kcal/mol]	mass density [kg/m3]
[1], x2 = 0.0951	–	1574.69
[1], x2 = 0.1373	–	1561.81
[1], x2 = 0.18	–	1547.9
[1], x2 = 0.2331	–	1529.55
[1], x2 = 0.3709	–	1475.52
[1], x2 = 0.4924	–	1417.67
[1], x2 = 0.5984	–	1357.11
[1], x2 = 0.6952	–	1290.94
[1], x2 = 0.799	–	1204.62
[1], x2 = 0.8251	–	1179.95
[1], x2 = 0.9038	–	1095.21
[1], x2 = 0.9183	–	1078.3
[1], x2 = 0.9504	–	1037.23
[1], x2 = 0.9718	–	1007.96
[2], x2 = 0.099	0.0911	–
[2], x2 = 0.2052	0.166	–
[2], x2 = 0.3188	0.231	–
[2], x2 = 0.4099	0.26	–
[2], x2 = 0.4481	0.27	–
[2], x2 = 0.5059	0.278	–
[2], x2 = 0.5777	0.278	–
[2], x2 = 0.6385	0.268	–
[2], x2 = 0.69	0.252	–
[2], x2 = 0.7201	0.241	–
[2], x2 = 0.7507	0.227	–
[2], x2 = 0.7946	0.203	–
[2], x2 = 0.8411	0.169	–
[2], x2 = 0.9115	0.108	–
[2], x2 = 0.9775	0.0335	–

BrCCCCCBr [1,5-dibromopentane] + CCCC(=O)OC
Settings	excess molar enthalpy [kcal/mol]	mass density [kg/m3]
[1], x2 = 0.0754	–	1642.8
[1], x2 = 0.1463	–	1593.12
[1], x2 = 0.2087	–	1548.48
[1], x2 = 0.2699	–	1503.86
[1], x2 = 0.3456	–	1447.37
[1], x2 = 0.454	–	1363.99
[1], x2 = 0.573	–	1268.9
[1], x2 = 0.6279	–	1223.66
[1], x2 = 0.6902	–	1171.2
[1], x2 = 0.7398	–	1128.65
[1], x2 = 0.7971	–	1078.54
[1], x2 = 0.8961	–	989.47
[1], x2 = 0.9526	–	937.22
[2], x2 = 0.0788	0.015	–
[2], x2 = 0.1742	0.0254	–
[2], x2 = 0.2762	0.0325	–
[2], x2 = 0.374	0.0341	–
[2], x2 = 0.461	0.0309	–
[2], x2 = 0.5359	0.0249	–
[2], x2 = 0.5693	0.0214	–
[2], x2 = 0.6313	0.0152	–
[2], x2 = 0.7089	0.0093	–
[2], x2 = 0.7917	0.00514	–
[2], x2 = 0.8725	0.00258	–
[2], x2 = 0.946	0.00131	–

BrCCCCBr [1,4-dibromobutane] + CCC(=O)OC
Settings	excess molar enthalpy [kcal/mol]	mass density [kg/m3]
[1], x2 = 0.0733	–	1763.63
[1], x2 = 0.1392	–	1712.4
[1], x2 = 0.2065	–	1658.81
[1], x2 = 0.2725	–	1604.96
[1], x2 = 0.3378	–	1550.31
[1], x2 = 0.3974	–	1499.32
[1], x2 = 0.4596	–	1444.8
[1], x2 = 0.5225	–	1388.41
[1], x2 = 0.638	–	1281.23
[1], x2 = 0.6944	–	1227.08
[1], x2 = 0.7466	–	1175.87
[1], x2 = 0.7998	–	1122.53
[1], x2 = 0.8489	–	1072.14
[1], x2 = 0.8998	–	1018.87
[1], x2 = 0.9505	–	964.61
[2], x2 = 0.074	0.0219	–
[2], x2 = 0.1513	0.0366	–
[2], x2 = 0.2294	0.0459	–
[2], x2 = 0.305	0.0495	–
[2], x2 = 0.3744	0.0494	–
[2], x2 = 0.4375	0.0468	–
[2], x2 = 0.4948	0.0428	–
[2], x2 = 0.546	0.0378	–
[2], x2 = 0.5911	0.0327	–
[2], x2 = 0.6302	0.0274	–
[2], x2 = 0.6539	0.0245	–
[2], x2 = 0.665	0.0245	–
[2], x2 = 0.6965	0.0181	–
[2], x2 = 0.712	0.016	–
[2], x2 = 0.7721	0.00839	–
[2], x2 = 0.8331	0.00425	–
[2], x2 = 0.8921	0.00227	–
[2], x2 = 0.9477	0.000956	–
